Read-outs that look alike come from different tables or passages of the source.
Tests used:
[1] = molecular target: T1, HDM2 (Homo sapiens, UniProt Q00987); assay: Fluorescence polarisation competitive HDM2 binding assay
T1 construct: Recombinant HDM2 (1.5 μg per well) in TBS-BSA buffer
Method in brief: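 Recombinant HDM2 (1.5 μg/well) was preincubated 5 min at room temperature with serially diluted compound in 50 mM Tris pH 7.4, 150 mM NaCl, 0.1% BSA, 5% DMSO final. Fluorescein-labelled p53 peptide (0.2 μM) was then added for 45 min. Polarisation was read at 485/520 nm and IC50 derived from dose-response curves.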

[2] = system: H1299; assay: 72-h MTT cytotoxicity assay, H1299; assay type: cell-based; conditions: Homo sapiens
Method in brief: (§1)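 Human tumour cells; SJSA-1 = bone sarcoma, wt p53, HDM2 overexpressed. H1299 = large cell lung ca., p53-null, low HDM2. AGS = gastric adenocarcinoma, wt p53. Endpoint: anti-proliferative potency.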

[3] = system: SJSA-1; assay: 72-h MTT cytotoxicity assay, SJSA-1; assay type: cell-based; conditions: Homo sapiens
Method in brief: as §1

[4] = system: DU145; assay: 72-h MTT cytotoxicity assay, DU145; assay type: cell-based; conditions: Homo sapiens, DU-145, 72 h; DU145, Prostate carcinoma; read-out: Anti-proliferative activity, 72-h MTT IC50
Protocol: (§2) Representative bisarylsulfonamide compounds were tested on a panel of transformed and non-transformed human cell lines, using a standard 72-h MTT cytotoxicity assay [Haselsberger K et al, ibid].

[5] = system: HT29; assay: 72-h MTT cytotoxicity assay, HT29; assay type: cell-based; conditions: Homo sapiens, HT-29, 72 h; HT29, Colon adenocarcinoma; read-out: Anti-proliferative activity, 72-h MTT IC50
Protocol: as §2

[6] = system: Nci-H460; assay: 72-h MTT cytotoxicity assay, Nci-H460; assay type: cell-based; conditions: Homo sapiens, Nci-H460, Large cell lung carcinoma, read-out: Anti-proliferative activity, 72-h MTT IC50
Protocol: as §2

[7] = system: SK-N-MC; assay: 72-h MTT cytotoxicity assay, SK-N-MC; assay type: cell-based; conditions: Homo sapiens, Neuriepithelioma, read-out: Anti-proliferative activity, 72-h MTT IC50
Protocol: as §2

[8] = system: HeLa; assay: 72-h MTT cytotoxicity assay, HeLa; assay type: cell-based; conditions: Homo sapiens, Cervical carcinoma, read-out: Anti-proliferative activity, 72-h MTT IC50
Protocol: as §2

[9] = system: MCF7; assay: 72-h MTT cytotoxicity assay, MCF7; assay type: cell-based; conditions: Homo sapiens, MCF7, Breast adenocarcinoma, read-out: Anti-proliferative activity, 72-h MTT IC50
Protocol: as §2

[10] = system: Messa; assay: 72-h MTT cytotoxicity assay, Messa; assay type: cell-based; conditions: Homo sapiens, MES-SA, Uterus sarcoma, read-out: Anti-proliferative activity, 72-h MTT IC50
Protocol: as §2

[11] = system: Saos-2; assay: 72-h MTT cytotoxicity assay, Saos-2; assay type: cell-based; conditions: Homo sapiens, Saos-2, Osteosracoma, read-out: Anti-proliferative activity, 72-h MTT IC50
Protocol: as §2

[12] = system: U2OS; assay: 72-h MTT cytotoxicity assay, U2OS; assay type: cell-based; conditions: Homo sapiens, Osteosracoma, read-out: Anti-proliferative activity, 72-h MTT IC50
Protocol: as §2

[13] = system: SKUT-1; assay: 72-h MTT cytotoxicity assay, SKUT-1; assay type: cell-based; conditions: Homo sapiens, SK-UT-1, 72 h; SKUT-1, Uterus leiomyosarcoma; read-out: Anti-proliferative activity, 72-h MTT IC50
Protocol: as §2

[14] = system: HS27; assay: 72-h MTT cytotoxicity assay, HS27; assay type: cell-based; conditions: Homo sapiens, HS27, Foreskin fibroblasts, read-out: Anti-proliferative activity, 72-h MTT IC50
Protocol: as §2

[15] = system: IMR90; assay: 72-h MTT cytotoxicity assay, IMR90; assay type: cell-based; conditions: Homo sapiens, IMR-90, 72 h; IMR90, Lung fibroblasts; read-out: Anti-proliferative activity, 72-h MTT IC50
Protocol: as §2

[16] = system: transformed human cell lines; assay: 72-h MTT panel, average transformed; assay type: cell-based; conditions: average over transformed cell lines, read-out: Anti-proliferative activity, 72-h MTT IC50, Average transformed
Protocol: as §2
(§3) This differential selectivity further supports the notion that the bisarylsulfonamides modulate cellular HDM2 function. It is known that HDM2 amplification is particularly common in soft tissue sarcomas and osteosarcomas [Momand J et al, ibid; Bartel F, Meye A, Wurl P, Kappler M, Bache M, Lautenschlager C, Grunbaum U, Schmidt H, Taubert H; Int. J. Cancer 2001; 95: 168-175].

[17] = system: carcinoma cell lines; assay: 72-h MTT panel, average carcinomas; assay type: cell-based; conditions: Homo sapiens, average over carcinoma cell lines, read-out: Anti-proliferative activity, 72-h MTT IC50, Average carcinomas
Protocol: as §2, §3

[18] = system: sarcoma cell lines; assay: 72-h MTT panel, average sarcomas; assay type: cell-based; conditions: Homo sapiens, average over sarcoma cell lines, read-out: Anti-proliferative activity, 72-h MTT IC50, Average sarcomas
Protocol: as §2, §3

[19] = system: E2F transcription factors; assay: E2F reporter gene assay (A549-derived luciferase reporter cell line); assay type: cell-based; conditions: Homo sapiens
Protocol: A similar system to the p53 reporter assay described above was used, with the exception that it was designed to be responsive to E2F transcription factors rather than p53. An A549-derived cell line stably transfected with an E2F response element and a luciferase reporter gene was created. The genetic expression cassette construct used was from Clontech (Mercury™ Cell Cycle Profiling System). Assays were carried out as described above.
Representative bisarylsulfonamides were tested in the E2F gene reporter assay described in Example 6.

[20] = system: p53; assay: p53 reporter gene assay (U2OS-derived luciferase reporter cell line); conditions: for Fold induction of luciferase activity: compared to basal luciferase activity, 16-h time point, at concentration of maximal induction; for Concentration (test compound concentration at which the p53 induction was maximal): p53 reporter, U2OS-derived cell line
Protocol: A dual assay assessing both cell viability and p53 response was employed. A U2OS-derived cell line stably transfected with a p53 response element and a luciferase reporter gene was created. […] After seeding of cells into 96-well tissue culture plates, treatment with test compounds, and incubation for the desired duration, the cell proliferation reagent WST-1 (Roche Molecular Biochemicals) was used to determine cell viability. The Bright-Glo™ Luciferase Assay System (Promega) was used to measure luciferase activity. The data from the cell viability assay was used to normalise data from the luciferase assay.

[21] = fluorescence polarisation assay, Table 3, read-out: In vitro competitive HDM2 binding assay IC50
[22] = fluorescence polarisation format, Table 1, read-out: IC50 In vitro competitive HDM2 binding assay
[23] = NCI-H1299, 72 h, H1299, Large cell lung carcinoma, Table 2, read-out: Anti-proliferative activity, 72-h MTT IC50
[24] = NCI-H1299, 72-h MTT, Table 1, read-out: IC50 Anti-proliferative effect on cell line H 1299
[25] = 72 h, SJSA-1, Osteosracoma, Table 2, read-out: Anti-proliferative activity, 72-h MTT IC50
[26] = SJSA-1, 72-h MTT, Table 1, read-out: IC50 Anti-proliferative effect on cell line SJSA-1
[27] = after 3-h treatment with test compounds, read-out: IC50 E2F reporter, Non-synchronised cells
[28] = after 3-h treatment, synchronisation with 0.3 mM mimosine for 24 h, followed by wash-out, read-out: IC50 E2F reporter, Synchronised cells

T1 sequence (Q00987 whole entry): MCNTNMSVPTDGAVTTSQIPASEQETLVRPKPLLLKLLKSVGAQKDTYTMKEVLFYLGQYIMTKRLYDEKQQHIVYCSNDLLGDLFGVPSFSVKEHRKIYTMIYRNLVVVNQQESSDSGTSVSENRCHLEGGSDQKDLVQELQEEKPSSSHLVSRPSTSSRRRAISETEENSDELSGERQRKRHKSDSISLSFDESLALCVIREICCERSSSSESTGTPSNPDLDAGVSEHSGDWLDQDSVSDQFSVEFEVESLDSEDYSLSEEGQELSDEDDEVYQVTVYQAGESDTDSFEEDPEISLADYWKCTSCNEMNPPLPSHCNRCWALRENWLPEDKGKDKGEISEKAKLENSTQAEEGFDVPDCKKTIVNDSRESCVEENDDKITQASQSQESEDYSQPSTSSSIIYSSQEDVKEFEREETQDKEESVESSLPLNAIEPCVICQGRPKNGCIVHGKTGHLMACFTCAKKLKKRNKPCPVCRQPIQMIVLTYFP

IC50 [1, 21] | IC50 [1, 22] | IC50 [17] | SMILES | IC50 [2, 23] | IC50 [2, 24] | IC50 [3, 25] | IC50 [3, 26] | IC50 [4] | IC50 [5] | IC50 [6] | IC50 [7] | IC50 [8] | IC50 [9] | IC50 [10] | IC50 [11] | IC50 [12] | IC50 [13] | IC50 [14] | IC50 [15] | IC50 [16] | other results
41.9 ± 5.8 µM | 41.9 ± 5.8 µM | 3.8 ± 1.8 µM | O=[N+]([O-])c1cc(S(=O)(=O)Nc2ccc(F)cc2)sc1Cl [Compound 3, 5-Chloro-4-nitrothiophene-2-sulfonic acid (4-fluorophenyl)amide] | 5.2 µM | 5.7 ± 0.4 µM | 14.1 µM | 17.1 ± 0.4 µM | 3.6 µM | 2.3 µM | 5.2 µM | 3.8 µM | 2.7 µM | 1.9 µM | 18.3 µM | 8.9 µM | 8.2 µM | 14.1 µM | 15.2 µM | 19.8 µM | 6.9 ± 5 µM | IC50 [18]: 12.1 ± 3.8 µM; IC50 [19, 27]: 28.8 ± 2.3 µM; IC50 [19, 28]: 69 ± 30 µM; Fold induction of luciferase activity [20]: 200 fold; Concentration (test compound concentration at which the p53 induction was maximal) [20]: 6 µM
26.4 ± 3.4 µM | 26.4 ± 3.4 µM | 3.1 ± 1.2 µM | O=[N+]([O-])c1cc(S(=O)(=O)Nc2ccc(Cl)cc2)sc1Cl [Compound 2, 5-Chloro-4-nitrothiophene-2-sulfonic acid (4-chlorophenyl)-amide] | 4.4 µM | 5.1 ± 0.7 µM | 13.5 µM | 13.6 ± 1.1 µM | 3.1 µM | 2.1 µM | 3.3 µM | 3 µM | 2.8 µM | 2.7 µM | 13.1 µM | 9.5 µM | 6.2 µM | 8.8 µM | 17.3 µM | 23.1 µM | 5.7 ± 3.9 µM | IC50 ([2]; NCI-H1299, H1299, Example 9, read-out: anti-proliferative IC50 concentration determined for each cell line): 5 µM; IC50 ([3]; SJSA-1, Example 9, read-out: anti-proliferative IC50 concentration determined for each cell line): 15 µM; IC50 [18]: 10.2 ± 2.7 µM; IC50 [19, 27]: 23.2 ± 4 µM; Fold induction of luciferase activity [20]: 231 fold; Concentration (test compound concentration at which the p53 induction was maximal) [20]: 6 µM
20.4 ± 1.4 µM | 20.4 ± 1.4 µM | 4.9 ± 2.3 µM | O=[N+]([O-])c1cc(S(=O)(=O)Nc2ccc(C(F)(F)F)cc2)sc1Cl [Compound 6, 5-Chloro-4-nitrothiophene-2-sulfonic acid (4-trifluoromethylphenyl)amide] | 4.9 µM | 8.1 ± 1.3 µM | 17.8 µM | 22.5 ± 0.6 µM | 6.1 µM | 3.5 µM | 8 µM | 2.9 µM | 3.9 µM | 3.3 µM | 16 µM | 12 µM | 10.2 µM | 15 µM | 21.4 µM | 29.8 µM | 8.4 ± 5.1 µM | IC50 [18]: 13.7 ± 3.1 µM; IC50 [19, 27]: 37.5 ± 12.9 µM; IC50 [19, 28]: 39 µM; Fold induction of luciferase activity [20]: 84 fold; Concentration (test compound concentration at which the p53 induction was maximal) [20]: 5.5 µM
